Test results reported in US20130225830A1, “POLYMORPHS OF FEBUXOSTAT” (MAPI PHARMA LIMITED, priority 2010, published 2013).

How the values were obtained:
Format in all cases: physicochemical
[1] = Physical stability measurements (XRPD, DSC, TGA)
Description: Testing conditions: 40° C., 60° C., 40° C./RH 75%, 60° C./RH 75%, light
Testing procedure: About 50 mg of a febuxostat form were weighed in glass vial for testing the physical stability and were stored under different conditions for 1 week and 2 weeks, separately. The same febuxostat form was stored at −20° C. as control. XRPD, DSC and TGA of each of the febuxostat forms were measured at the end of the first and second weeks.

[2] = Hygroscopicity measurements (DVS sorption/desorption profiles)
Description: The sorption/desorption profiles of the forms of the present invention were tested at 25° C. under 0-90% relative humidity. The forms of the present invention were classified according to the following criteria: Deliquescent: Sufficient water is absorbed to form a liquid. […] Hygroscopic: Increase in mass is less than 15% and equal to or greater than 2%. Slightly hygroscopic: Increase in mass is less than 2% and equal to or greater than 0.2%. Non-hygroscopic: Increase in mass is less than 0.2%.

[3] = Bulk and tapped density measurements
Description: Bulk density testing: A febuxostat form in an amount which is sufficient to complete the test was passed through a 1.0 mm (No. 18) screen to break up agglomerates that may have formed during storage. The febuxostat form was then weighed (M) and the powder was added into a 10 mL graduated cylinder. The powder was carefully leveled without compacting, and the unsettled apparent volume, Vo, was read. The bulk density, in g per mL, was calculated by the formula: Bulk Density=M/Vo Tapped density testing: A febuxostat form in an amount which is sufficient to complete the test was passed through a 1.0 mm (No. 18) screen to break up agglomerates that may have formed during storage. The febuxostat form was then weighed and the powder was added into a 10 mL graduated cylinder. The powder was carefully leveled without compacting. The cylinder was tapped 500 times initially and the tapped volume, Va, was measured to the nearest graduated unit. The tapping was then repeated for additional 750 times and the tapped volume, Vb, was measured to the nearest graduated unit. If the difference between the two volumes was less than 2%, Vb was taken as the final tapped volume, Vf. The tapped density, in g per mL, was calculated by the formula: Tapped Density=M/Vf

[4] = Aqueous solubility measurements; settings: for pH: final pH of saturated solution
Description: Testing media: water, pH 1.2, 4.5, 6.8, 7.4 USP buffers, 0.01 N HCl, 0.1 N HCl, SGF, FaSSIF, FeSSIF.
The various testing media were prepared as follows:
pH 1.2 (USP): 50 mL of 0.2 M potassium chloride solution were placed in a 200 mL volumetric flask to which 85.0 mL of 0.2M hydrochloric acid solution were added followed by the addition of water to obtain the required volume.
pH 4.5 (USP): 50 mL of 0.2 M potassium biphthalate solution were placed in a 200 mL volumetric flask to which 8.8 mL of 0.2 M sodium hydroxide solution were added followed by the addition of water to obtain the required volume.
pH 6.8 (USP): 50 mL of 0.2 M monobasic potassium phosphate solution were placed in a 200 mL volumetric flask to which 22.4 mL of 0.2 M sodium hydroxide solution were added followed by the addition of water to obtain the required volume.
pH 7.4 (USP): 50 mL of 0.2 M monobasic potassium phosphate solution were placed in a 200 mL volumetric flask to which 39.1 mL of 0.2 M sodium hydroxide solution were added followed by the addition of water to obtain the required volume.
Simulated gastric fluid (SGF): 0.01 N HCl, 0.05% sodium lauryl sulfate, and 0.2% NaCl.
Fasted state simulated intestinal fluid (FaSSIF): 29 mM NaH2PO4, 3 mM Na taurocholate, 0.75 mM lecithin, 103 mM NaCl, and NaOH to obtain pH 6.5.
Fed state simulated intestinal fluid (FeSSIF): 144 mM acetic acid, 15 mM Na taurocholate, 3.75 mM lecithin, 204 mM NaCl, and NaOH to obtain pH 5.0.
Testing procedure: The tested febuxostat form was placed in each of the different media and was kept shaken for 24 hours at 25° C. Then, the saturated solution was filtered. The concentration of the febuxostat form in filtrate was determined by HPLC. The final pH was then tested. The test was conducted in duplication.

[5] = media 0.01N HCl, 24 hours at 25° C.
[6] = media 0.1N HCl, 24 hours at 25° C.
[7] = media FaSSIF, 24 hours at 25° C.
[8] = media FeSSIF, 24 hours at 25° C.
[9] = media pH 1.2 (USP), 24 hours at 25° C.
[10] = media pH 4.5 (USP), 24 hours at 25° C.
[11] = media pH 6.8 (USP), 24 hours at 25° C.
[12] = media pH 7.4 (USP), 24 hours at 25° C.
[13] = media water, 24 hours at 25° C.

Cc1nc(-c2ccc(OCC(C)C)c(C#N)c2)sc1C(=O)O [Form IX, 2-(3-cyano-4-isobutoxyphenyl)-4-methyl-5-thiazolecarboxylic acid]
physical stability (XRPD, DSC, TGA) ([1]; 40° C., 60° C. and light at the end of the first and second week): stable | physical stability (XRPD, DSC, TGA), form conversion ([1]; 40° C./75% RH at the end of the second week): partially converted to form G | physical stability (XRPD, DSC, TGA), form conversion ([1]; 60° C./75% RH at the end of the first and second weeks): completely converted to form G | Hygroscopicity classification ([2]; 25° C., 0-90% relative humidity): hygroscopic | hygroscopicity compared with Form G of U.S. Pat. No. 6,225,474 ([2]; DVS isotherm plots): less hygroscopic | Change in Mass (%) - ref, Desorption ([2]; Target % P/P0 0.0, 25° C.): 0.031% | Change in Mass (%) - ref, Sorption ([2]; Target % P/P0 0.0, 25° C.): 0.000% | Change in Mass (%) - ref, Desorption ([2]; Target % P/P0 10.0, 25° C.): 0.247% | Change in Mass (%) - ref, Hysteresis ([2]; Target % P/P0 10.0, 25° C.): 0.121% | Change in Mass (%) - ref, Sorption ([2]; Target % P/P0 10.0, 25° C.): 0.127% | Change in Mass (%) - ref, Desorption ([2]; Target % P/P0 20.0, 25° C.): 0.323% | Change in Mass (%) - ref, Hysteresis ([2]; Target % P/P0 20.0, 25° C.): 0.128% | Change in Mass (%) - ref, Sorption ([2]; Target % P/P0 20.0, 25° C.): 0.195% | Change in Mass (%) - ref, Desorption ([2]; Target % P/P0 30.0, 25° C.): 0.428% | Change in Mass (%) - ref, Hysteresis ([2]; Target % P/P0 30.0, 25° C.): 0.176% | Change in Mass (%) - ref, Sorption ([2]; Target % P/P0 30.0, 25° C.): 0.252% | Change in Mass (%) - ref, Desorption ([2]; Target % P/P0 40.0, 25° C.): 0.510% | Change in Mass (%) - ref, Hysteresis ([2]; Target % P/P0 40.0, 25° C.): 0.160% | Change in Mass (%) - ref, Sorption ([2]; Target % P/P0 40.0, 25° C.): 0.351% | Change in Mass (%) - ref, Desorption ([2]; Target % P/P0 50.0, 25° C.): 0.616% | Change in Mass (%) - ref, Hysteresis ([2]; Target % P/P0 50.0, 25° C.): 0.184% | Change in Mass (%) - ref, Sorption ([2]; Target % P/P0 50.0, 25° C.): 0.432% | Change in Mass (%) - ref, Desorption ([2]; Target % P/P0 60.0, 25° C.): 0.786% | Change in Mass (%) - ref, Hysteresis ([2]; Target % P/P0 60.0, 25° C.): 0.221% | Change in Mass (%) - ref, Sorption ([2]; Target % P/P0 60.0, 25° C.): 0.566% | Change in Mass (%) - ref, Desorption ([2]; Target % P/P0 70.0, 25° C.): 1.139% | Change in Mass (%) - ref, Hysteresis ([2]; Target % P/P0 70.0, 25° C.): 0.391% | Change in Mass (%) - ref, Sorption ([2]; Target % P/P0 70.0, 25° C.): 0.747% | Change in Mass (%) - ref, Desorption ([2]; Target % P/P0 80.0, 25° C.): 1.583% | Change in Mass (%) - ref, Hysteresis ([2]; Target % P/P0 80.0, 25° C.): 0.583% | Change in Mass (%) - ref, Sorption ([2]; Target % P/P0 80.0, 25° C.): 1.000% | Change in Mass (%) - ref, Desorption ([2]; Target % P/P0 90.0, 25° C.): 2.135% | Change in Mass (%) - ref, Sorption ([2]; Target % P/P0 90.0, 25° C.): 2.135% | Bulk Density [3]: 0.177 g/mL | Tapped Density [3]: 0.282 g/mL | bulk and tapped densities (in words) ([3]; compared among forms V, IX, XI and form G): lowest bulk and tapped densities | solubility at colon-simulated media and intestinal fluids (in words) ([4]; colon-simulated media (pHs=6.8-7.4) and intestinal fluids): improved solubility | pH [4, 5]: 2.078 | pH [4, 6]: 1.060 | pH [4, 7]: 6.246 | pH [4, 8]: 4.983 | pH ([4]; media SGF, 24 hours at 25° C.): 2.097 | pH [4, 9]: 1.242 | pH [4, 10]: 4.524 | pH [4, 11]: 6.477 | pH [4, 12]: 6.690 | pH ([4]; media water, shaken 24 hours at 25° C.): 5.403 | Visual solubility [4, 5]: Turbid + few particles | Visual solubility [4, 6]: Turbid + few particles | HPLC solubility [4, 7]: 606.65 µg/mL | Visual solubility [4, 7]: Turbid | HPLC solubility [4, 8]: 192.53 µg/mL | Visual solubility [4, 8]: Turbid | Visual solubility ([4]; media SGF, 24 hours at 25° C.): Turbid | Visual solubility [4, 9]: Turbid + few particles | HPLC solubility [4, 10]: 0.78 µg/mL | Visual solubility [4, 10]: Turbid + few particles | HPLC solubility [4, 11]: 1409.99 µg/mL | Visual solubility [4, 11]: Turbid + few particles | HPLC solubility [4, 12]: 4836.10 µg/mL | Visual solubility [4, 12]: Slightly turbid | HPLC solubility [4, 13]: 32.99 µg/mL | Visual solubility [4, 13]: Turbid + few particles | aqueous solubility (in words) ([4]; pH1.2 USP buffer, 0.01N HCl, 0.1N HCl and SGF): poor solubility | aqueous solubility (in words) ([4]; pH6.8 USP buffer, pH7.4 USP buffer, FaSSIF, FeSSIF): good solubility
